Results reported in paper PMC11960969, “Mdga2 deficiency leads to an aberrant activation of BDNF/TrkB signaling that underlies autism-relevant synaptic and behavioral changes in mice” (PLOS Biology, 2025).

System: hippocampal proteins
Assay: DIA quantification proteomics, hippocampus of Mdga2+/- vs WT mice
Design: species or system mouse
Conditions: S3 Table, downregulated DEPs; for log2FC: Mdga2+/- vs WT mouse hippocampus (HET-HIP-VS-WT-HIP), SE, pvalue and adj_pvalue in own columns c3-c5; for Class: regulation class of the protein, HET-HIP-VS-WT-HIP
Method: The hippocampus of 1.5–2-month-old Mdga2^ +/− male mice and their WT littermate controls was collected and sent to the BGI company for DIA quantification proteomics and data analysis. Briefly, samples were lysed and sonicated. After centrifugation, the supernatant was taken for quantification. Equal amounts of proteins (100 μg) per sample were subjected to trypsin enzymatic hydrolysis. After dryness, 10 μg enzymatic peptides per sample were separated by high-pH fractionation into a total of 10 fractions using high-performance liquid chromatography (HPLC) and freeze-dried. Data-dependent acquisition (DDA) fractions and DIA samples were analyzed by nano-LC–MS/MS. DDA data was identified by Andromeda search engine within MaxQuant. Identified results were used by Spectronaut^TM for spectral library construction. For DIA data, Spectronaut^TM used the constructed spectral library information to complete deconvolution and extraction, and used the mProphet algorithm to complete analytical quality control for obtaining reliable quantitative results. The mass spectrometry proteomics data have been deposited to the ProteomeXchange Consortium via the PRIDE [62] partner repository with the dataset identifier PXD050810. DEPs between comparison groups were identified based on the quantitative results, using the fold change >1.1 and p-value <0.05 as the criteria. After retrieval from the UniProtKB database, identified DEPs were processed for GO analysis by using DAVID (https://david.ncifcrf.gov/home.jsp) and Metascape database (https://metascape.org/gp/index.html).

sp¦Q91WG7¦DGKG_MOUSE
log2FC: -3.157 | Class: Down

sp¦Q80YX1¦TENA_MOUSE
log2FC: -1.6471 | Class: Down

sp¦P27038¦AVR2A_MOUSE
log2FC: -1.635 | Class: Down

sp¦Q0VGY8¦TANC1_MOUSE
log2FC: -2.363 | Class: Down

sp¦A2AF47¦DOC11_MOUSE
log2FC: -1.478 | Class: Down

sp¦P97433¦ARG28_MOUSE
log2FC: -1.853 | Class: Down

sp¦Q3UQ44¦IQGA2_MOUSE
log2FC: -1.377 | Class: Down

sp¦A2A791¦ZMYM4_MOUSE
log2FC: -2.935 | Class: Down
